Source: patent US20050203119A1, “Dihydropyridine compounds for treating or preventing metabolic disorders” (priority 2003, published 2005)

System: male db/db mice (C57BLKS/J-m+/+Lepr db/Iar)
Test: Seven day baseline glucose (7DBG) study in fed db/db mice (Example 123, FIGS. 6 and 8)
Format: in vivo, mouse
Conditions: oral once daily 7 days
Procedure: To determine the effect of a test compound on blood glucose levels in fed diabetic mice, seven day baseline glucose (7DBG) studies were conducted. Six to eight week old, male db/db mice (C57BLKS/J-m+/+Lepr^db/Iar), homozygous for a mutation in the gene encoding the leptin receptor, were purchased from the Institute for Animal Reproduction (Kasumigaura, Japan). Six to eight week old male KK-A^y mice (KK-A^y/Ta Jcl), a polygenic diabetes model, were purchased from Cler Japan (Tokyo, Japan). Animals were housed four to a cage in micro-isolators on a 12 hr/12 hr light/dark cycle, acclimated for at least one week prior to use and fed normal laboratory chow ad libitum. Studies were conducted with animals between nine and fourteen weeks of age. […]
To perform a 7DBG study, the starting glucose levels of db/db or KK-Ay mice in the fed state were determined on day 0, 24 hrs prior to the first drug dose on day 1. Animals were retro-orbitally bled and serum glucose levels measured by the mutarotase-glucose oxidase enzymatic method using a Glucose CII-Test Wako kit (Wako Pure Chemicals Industries, Ltd., Osaka, Japan). […] Serum glucose levels were determined 3 hrs after dosing the first compound on days 3 and 7.
The serum glucose levels on days 3 or 7 as a percent of the serum glucose levels on day 0 for individual animals in each group (6-7 mice/group), calculated using Formula 3: [formula] […]

CCOC(=O)C1=C(COCCN)NC2=C(C(=O)CC(C)(C)C2)C1c1cccnc1 (stereo not shown) [Compound 39, 2-(2-Amino-ethoxymethyl)-7,7-dimethyl-5-oxo-4-pyridin-3-yl-1,4,5,6,7,8-hexahydro-quinoline-3-carboxylic acid ethyl ester]
glucose lowering activities of rosiglitazone and metformin in combination with Compound 39 (FIG. 8): enhanced
